Results: article PMC10986499, “Unravelling HetC as a peptidase-based ABC exporter driving functional cell differentiation in the cyanobacterium Nostoc PCC 7120” (Microbiology Spectrum, 2024)
pKd: −log10 of the molar value.

What was measured:
HetC [1] = molecular target: T1, HetC (Nostoc sp. PCC 7120 = FACHB-418, UniProt A0ACD7RTN5); assay: chromogenic peptidase assay at […] nm with purified HetCNTD, […] substrate; format: biochemical
T1 construct: HetCNTD, N-terminal domain (first 480 residues; includes C39 peptidase domain), hexa-his tagged
T1 sequence (A0ACD7RTN5 1-480): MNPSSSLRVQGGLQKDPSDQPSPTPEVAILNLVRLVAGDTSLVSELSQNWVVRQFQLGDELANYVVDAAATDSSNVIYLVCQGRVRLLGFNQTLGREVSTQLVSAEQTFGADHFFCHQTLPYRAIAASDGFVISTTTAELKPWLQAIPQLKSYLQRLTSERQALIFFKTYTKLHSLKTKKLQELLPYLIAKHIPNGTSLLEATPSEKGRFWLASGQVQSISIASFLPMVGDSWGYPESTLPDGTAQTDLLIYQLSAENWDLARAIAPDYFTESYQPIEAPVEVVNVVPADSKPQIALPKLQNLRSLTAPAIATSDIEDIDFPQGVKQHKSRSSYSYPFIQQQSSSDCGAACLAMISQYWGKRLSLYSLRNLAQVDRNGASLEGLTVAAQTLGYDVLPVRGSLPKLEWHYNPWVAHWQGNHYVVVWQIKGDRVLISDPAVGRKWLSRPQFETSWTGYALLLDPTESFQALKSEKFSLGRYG

HetC [2] = molecular target: T2, HetC (Nostoc sp. PCC 7120 = FACHB-418, UniProt A0ACD7RTN5); assay: ITC (triplicate), supported by nanoDSF shift (ΔTm […] °C at […]); format: binding
T2 construct: HetCNTD, N-terminal domain (first 480 residues)

SMILES	chromogenic peptidase assay at 405 nm with purified HetCNTD, 1 mM substrate (HetC [1])	pKd (HetC [2])
N=C(N)NCCC[C@H](N)C(=O)Nc1ccc([N+](=O)[O-])cc1 [L-Arginine p-nitroanilide]	0.22 ± 0.08 pmol/min/µg of protein	–
Nc1nc2c(ncn2[C@@H]2O[C@H](COP(=O)(O)OP(=O)(O)O)[C@@H](OP(=O)(O)OP(=O)(O)O)[C@H]2O)c(=O)[nH]1 [ppGpp]	–	~4.23
